Tests used:
[1] = system: Beet Armyworm (Spodoptera exigua) ("BAW"), second instar larvae; test: Bioassay on beet armyworm (BAW), 128-well diet tray assay; assay type: in vivo; details: Spodoptera exigua, read-out: BAW (Biological Results, rating)
Procedure, shortened: (§1)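 Each value represents average percent mortality from eight wells. Larvae were kept in clear-covered trays at 25° C. for five to seven days on a 14-hour light, 10-hour dark schedule before scoring.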

[2] = system: Cabbage Looper (Trichoplusia ni) ("CL"), second instar larvae; test: Bioassay on cabbage looper (CL), 128-well diet tray assay; assay type: in vivo; details: Trichoplusia ni, read-out: CL (Biological Results, rating)
Procedure, shortened: as §1

Row | SMILES | pest or weed control at 50 µg/cm2 [1] | pest or weed control at 50 µg/cm2 [2]
1 | CCC(C)c1ccc(C)cc1N1C(=O)CS/C1=N\C(=O)Nc1ccc(-c2ncn(-c3ccc(C(F)(F)F)cc3)n2)cc1F (stereo not drawn) [Compound J65, (Z)-1-(3-(2-(sec-Butyl)-5-methylphenyl)-4-oxothiazolidin-2-ylidene)-3-(2-fluoro-4-(1-(4-(trifluoromethyl)phenyl)-1H-1,2,4-triazol-3-yl)phenyl)urea] | 50 to 100% | 50 to 100%
2 | COCc1ccc(C)cc1N1C(=O)CS/C1=N\C(=O)Nc1ccc(-c2ncn(-c3ccc(OC(F)(F)F)cc3)n2)cc1C [Compound J67, (Z)-1-(3-(2-(Methoxymethyl)-5-methylphenyl)-4-oxothiazolidin-2-ylidene)-3-(2-methyl-4-(1-(4-(trifluoromethoxy)phenyl)-1H-1,2,4-triazol-3-yl)phenyl)urea] | 50 to 100% | 50 to 100%
3 | Cc1cc(-c2ncn(-c3ccc(OC(F)(F)F)cc3)n2)ccc1NC(=O)/N=C1\SCC(=O)N1c1cc(N(C)C)ccc1C(C)C [Compound J68, (Z)-1-(3-(5-(Dimethylamino)-2-isopropylphenyl)-4-oxothiazolidin-2-ylidene)-3-(2-methyl-4-(1-(4-(trifluoromethoxy)phenyl)-1H-1,2,4-triazol-3-yl)phenyl)urea] | 50 to 100% | 50 to 100%
4 | CCN(CC)c1ccc(C(C)C)c(N2C(=O)CS/C2=N\C(=O)Nc2ccc(-c3ncn(-c4ccc(OC(F)(F)F)cc4)n3)cc2F)c1 [Compound J69, (Z)-1-(3-(5-(diethylamino)-2-isopropylphenyl)-4-oxothiazolidin-2-ylidene)-3-(2-fluoro-4-(1-(4-(trifluoromethoxy)phenyl)-1H-1,2,4-triazol-3-yl)phenyl)urea] | 50 to 100% | 50 to 100%
5 | Cc1ccc(C(C)C)c(N2C(=O)CS/C2=N\C(=O)Nc2c(F)cc(-c3ncn(-c4ccc(OC(F)(F)F)cc4)n3)cc2F)c1 [Compound J78, (Z)-1-(2,6-Difluoro-4-(1-(4-(trifluoromethoxy)phenyl)-1H-1,2,4-triazol-3-yl)phenyl)-3-(3-(2-isopropyl-5-methylphenyl)-4-oxothiazolidin-2-ylidene)urea] | 50 to 100% | 50 to 100%
6 | Cc1ccc(OCC(F)(F)F)c(N2C(=O)CS/C2=N\C(=O)Nc2c(F)cc(-c3ncn(-c4ccc(OC(F)(F)F)cc4)n3)cc2F)c1 [Compound J79, (Z)-1-(2,6-Difluoro-4-(1-(4-(trifluoromethoxy)phenyl)-1H-1,2,4-triazol-3-yl)phenyl)-3-(3-(5-methyl-2-(2,2,2-trifluoroethoxy)phenyl)-4-oxothiazolidin-2-ylidene)urea] | 50 to 100% | 50 to 100%
7 | Cc1ccc(OCCCC(F)(F)F)c(N2C(=O)CS/C2=N\C(=O)Nc2c(F)cc(-c3ncn(-c4ccc(OC(F)(F)F)cc4)n3)cc2F)c1 [Compound J80, (Z)-1-(2,6-Difluoro-4-(1-(4-(trifluoromethoxy)phenyl)-1H-1,2,4-triazol-3-yl)phenyl)-3-(3-(5-methyl-2-(4,4,4-trifluorobutoxy)phenyl)-4-oxothiazolidin-2-ylidene)urea] | 50 to 100% | 50 to 100%
8 | COC(C)c1ccc(C)cc1N1C(=O)CS/C1=N\C(=O)Nc1c(F)cc(-c2ncn(-c3ccc(OC(F)(F)F)cc3)n2)cc1F (stereo not drawn) [Compound J81, (Z)-1-(2,6-Difluoro-4-(1-(4-(trifluoromethoxy)phenyl)-1H-1,2,4-triazol-3-yl)phenyl)-3-(3-(2-(1-methoxyethyl)-5-methylphenyl)-4-oxothiazolidin-2-ylidene)urea] | 50 to 100% | 50 to 100%
9 | CC(C)c1ccc(N(C)C)cc1N1C(=O)CS/C1=N\C(=O)Nc1c(F)cc(-c2ncn(-c3ccc(OC(F)(F)F)cc3)n2)cc1F [Compound J82, (Z)-1-(2,6-Difluoro-4-(1-(4-(trifluoromethoxy)phenyl)-1H-1,2,4-triazol-3-yl)phenyl)-3-(3-(5-(dimethylamino)-2-isopropylphenyl)-4-oxothiazolidin-2-ylidene)urea] | 50 to 100% | 50 to 100%
